{"source": "patent US12600724B2", "about": "“Indole alkaloid and preparation method and use thereof” (NANJING UNIVERSITY OF CHINESE MEDICINE, priority 2022, dated 2026)", "key": {"[1]": {"test_system": "type-2 diabetes model db/db mice", "test": "50% mechanical pain threshold (Von frey), type-2 diabetes db/db mice", "assay_type": "in vivo, BKS db/db mice", "conditions": "S26 46.8 mg/kg/day intragastric, Mean ± SD, n = 6", "experimental": "(§1) Type-2 diabetes mice: male 18-week-old BKS db/db mice were purchased from Jiangsu Gempharmatech Biotechnology Co., Ltd. One week after adaptive feeding, the mice were divided into a control group (db/m mice), a model group (db/db mice) and a S26 administration group (46.8 mg/kg/day) respectively according to body weight and blood sugar, and administrated intragastrically for four weeks continuously. This experiment was based on a principle that claws of rodents would have a withdrawal reflex under mechanical stimulation. A Von frey tactile measuring set was purchased from Ugo Basile Company, and Von frey filaments could provide 0.008 g to 300 g of stimulating force, wherein a thickness of the filaments determined a magnitude of the stimulating force. Specific experimental method: filaments with proper thicknesses were selected to vertically stimulate a skin, and the stimulating force was adjusted by replacing the filaments, until the filaments were bent. One mouse was tested for 6 times to determine a threshold, and a 50% mechanical pain threshold of the mouse was calculated according to 50% threshold=(10^(Xf+k δ))/10000, which was detected weekly before and after administration respectively."}, "[2]": {"test_system": "STZ-induced type-1 diabetes model mice", "test": "Motor nerve conduction velocity, type-1 diabetic peripheral neuropathy mice", "assay_type": "in vivo, C57BL/6J mice", "conditions": "for Motor nerve conduction velocity: type-1 mice, S26 46.8 mg/kg/day intragastric, Mean ± SD, n = 3", "experimental": "Type-1 diabetes mice: male 8-week-old C57BL/6J mice were purchased from Beijing Vital River Laboratory Animal Technology Co., Ltd. One week after adaptive feeding, STZ (150 mg/kg) was injected intraperitoneally, and one week later, tail vein blood collection was carried out for blood sugar detection, and the mice with random blood sugar greater than 16 mmol/L were selected. Six weeks after STZ injection, the mice were divided into a control group (non-diabetic mice), a model group (DPN mice) and a S26 administration group (46.8 mg/kg/day) respectively according to body weight and blood sugar, and administrated intragastrically for four weeks continuously. Before administration, 2 weeks and 4 weeks after administration, motor nerve conduction velocities (MNCV) of left and right sides of each group of mice were detected, and a mean value of the velocities of two sides was taken as a nerve conduction velocity of each mouse. Specific experimental method: (1) electrode placement: a stimulating electrode was placed on a nerve trunk, a recording electrode was placed on a muscle belly, and a reference electrode was placed on a muscle tendon; and a ground electrode was placed between the stimulating electrode and the recording electrode. (2) Calculation of motor nerve conduction velocity: distal and proximal ends of the nerve trunk were stimulated in a super-strong manner, a compound muscle action potential could be recorded twice on a muscle innervated by the nerve, different latent periods of the compound muscle action potentials were measured, and a distance between the distal and proximal ends was divided by a difference between the two latent periods, so as to obtain the nerve conduction velocity. Computational formula: nerve conduction velocity (m/s)=distance between two ends (cm)×10/difference between two latent periods (ms)."}, "[3]": {"test_system": "bleomycin-induced pulmonary fibrosis mouse", "test": "Bleomycin-induced pulmonary fibrosis mouse, Micro-CT volume of normal lung tissue", "assay_type": "in vivo, C57BL/6J mice", "conditions": "for Volume of normal lung tissue: bleomycin 5 mg/kg model, S26 46.8 mg/kg intragastric, Mean ± SD, n = 4", "excerpt": "In this experiment, the pulmonary fibrosis model was established by oral tracheal instilling of a bleomycin solution into the mouse, and then the compound S26 was administrated for treatment. A volume of a normal lung tissue of the mouse was quantified by carrying out CT photographing and three-dimensional reconstruction on a lung of the mouse to evaluate the influence of the vinpocetine derivative S26 on the degree of the bleomycin-induced pulmonary fibrosis of the mouse. Male 8-week-old C57BL/6J mice were purchased from Beijing Weitong Lihua Experimental Animal Technology Co., Ltd. One week after adaptive feeding, a lung development condition of the mouse was examined by micro-CT. The mice were divided into a blank control group (normal mice), a model group and a S26 administration group (46.8 mg/kg) according to a volume of a normal lung tissue. Subsequently, an inhalation anesthesia machine was used to carry out isoflurane inhalation to induce anesthesia. The mice in the model group and the administration group were given 5 mg/kg bleomycin solution through oral tracheal instilling to establish the pulmonary fibrosis model, while the mice in the control group were given the same volume of bleomycin solvent. The mice were administrated on day 8 after the establishment of the model, and were intragastrically administrated for 20 days continuously. Micro-CT imaging was carried out before the establishment of the model and on day 8, day 18 and day 28 after the establishment of the model to observe pulmonary fibrosis of the mice."}, "[4]": {"test_system": "STZ-induced type-1 diabetes model mice", "test": "50% mechanical pain threshold (Von frey), type-1 diabetic peripheral neuropathy mice", "assay_type": "in vivo, C57BL/6J mice", "conditions": "type-1 mice, S26 46.8 mg/kg/day intragastric, Mean ± SD, n = 6", "experimental": "as §1, with “Type-1” for “Type-2”, “8-week-old C57BL/6J” for “18-week-old BKS db/db”, “Beijing Vital River Laboratory Animal Technology” for “Jiangsu Gempharmatech Biotechnology”, “feeding, STZ (150 mg/kg) was injected intraperitoneally, and one week later, tail vein blood collection was carried out for blood sugar detection, and the mice with random blood sugar greater than 16 mmol/L were selected. Six weeks after STZ injection,” for “feeding,”, “(non-diabetic” for “(db/m”, “(DPN” for “(db/db”"}}}
{"compound": "CC[C@@]12C=C(C(=O)NCC(=O)OCCOCCOCCOCCO)n3c4c(c5ccccc53)CCN(CCC1)[C@H]42", "note": "[Compound S26]", "values": [{"measurement": "50% mechanical pain threshold", "setting": "[1]; week 0 of administration", "result": "1.33 ± 0.56^ g"}, {"measurement": "50% mechanical pain threshold", "setting": "[1]; week 1 of administration", "result": "1.04 ± 0.55^ g"}, {"measurement": "50% mechanical pain threshold", "setting": "[1]; week 2 of administration", "result": "0.91 ± 0.37", "unit": "g"}, {"measurement": "50% mechanical pain threshold", "setting": "[1]; week 3 of administration", "result": "0.72 ± 0.39", "unit": "g"}, {"measurement": "50% mechanical pain threshold", "setting": "[1]; week 4 of administration", "result": "0.71 ± 0.42", "unit": "g"}, {"measurement": "Motor nerve conduction velocity and anesthesia symptom (in words)", "setting": "[2]; type-1 diabetes peripheral neuropathy mouse, Tables 2 to 4", "result": "obviously improve"}, {"measurement": "Motor nerve conduction velocity", "setting": "[2]; week 0 of administration", "result": "20.37 ± 3.21^ m/s"}, {"measurement": "Motor nerve conduction velocity", "setting": "[2]; week 2 of administration", "result": "27.48 ± 2.97", "unit": "m/s"}, {"measurement": "Motor nerve conduction velocity", "setting": "[2]; week 4 of administration", "result": "31.11 ± 3.85", "unit": "m/s"}, {"measurement": "Volume of normal lung tissue", "setting": "[3]; day 0 of administration (day 8 after model)", "result": "328.98 ± 34.15^ mm^3"}, {"measurement": "Volume of normal lung tissue", "setting": "[3]; day 10 of administration (day 18 after model)", "result": "486.71 ± 48.61^# mm^3"}, {"measurement": "Volume of normal lung tissue", "setting": "[3]; day 20 of administration (day 28 after model)", "result": "536.70 ± 58.44^## mm^3"}, {"measurement": "Volume of the normal lung tissue (in words, FIG. 3)", "setting": "[3]; pulmonary fibrosis model mouse", "result": "obviously increase"}, {"measurement": "50% mechanical pain threshold", "setting": "[4]; week 0 of administration", "result": "1.51 ± 0.22^ g"}, {"measurement": "50% mechanical pain threshold", "setting": "[4]; week 1 of administration", "result": "1.06 ± 0.34", "unit": "g"}, {"measurement": "50% mechanical pain threshold", "setting": "[4]; week 2 of administration", "result": "0.92 ± 0.24", "unit": "g"}, {"measurement": "50% mechanical pain threshold", "setting": "[4]; week 3 of administration", "result": "0.87 ± 0.15", "unit": "g"}, {"measurement": "50% mechanical pain threshold", "setting": "[4]; week 4 of administration", "result": "0.85 ± 0.23", "unit": "g"}]}
